This is an account of results in patent publication US20260297109A1, “COMPOUNDS AS SUMO ACTIVATING ENZYME INHIBITORS” (WIGEN BIOMEDICINE TECHNOLOGY (SHANGHAI) CO., LTD., priority 2022, published 2026).

pIC50: −log10 of the molar value. Where two headings read alike, the source gives them in different places.

One data set has as its target T1, SAE (Homo sapiens, UniProt Q9UBT2).
T1 construct: endogenous in cells; host or cells: HCT116
T1 sequence (Q9UBT2 1-640): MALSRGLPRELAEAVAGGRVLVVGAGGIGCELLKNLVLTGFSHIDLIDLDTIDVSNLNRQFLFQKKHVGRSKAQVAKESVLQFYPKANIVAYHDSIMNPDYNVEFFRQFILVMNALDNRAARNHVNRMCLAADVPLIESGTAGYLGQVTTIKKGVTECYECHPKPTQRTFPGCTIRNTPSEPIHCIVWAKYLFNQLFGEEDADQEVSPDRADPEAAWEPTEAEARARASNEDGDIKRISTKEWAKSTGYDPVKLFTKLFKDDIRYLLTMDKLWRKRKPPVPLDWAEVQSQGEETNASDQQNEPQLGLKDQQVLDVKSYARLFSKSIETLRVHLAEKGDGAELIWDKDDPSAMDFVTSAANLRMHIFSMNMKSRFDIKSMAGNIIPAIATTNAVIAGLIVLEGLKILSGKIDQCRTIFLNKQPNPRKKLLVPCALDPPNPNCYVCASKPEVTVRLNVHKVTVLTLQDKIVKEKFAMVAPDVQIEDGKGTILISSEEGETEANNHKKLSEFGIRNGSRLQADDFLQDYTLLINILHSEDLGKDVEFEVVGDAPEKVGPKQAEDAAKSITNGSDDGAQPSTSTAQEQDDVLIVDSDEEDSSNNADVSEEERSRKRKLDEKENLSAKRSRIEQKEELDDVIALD
T1 sequence (Q9UBE0 1-346): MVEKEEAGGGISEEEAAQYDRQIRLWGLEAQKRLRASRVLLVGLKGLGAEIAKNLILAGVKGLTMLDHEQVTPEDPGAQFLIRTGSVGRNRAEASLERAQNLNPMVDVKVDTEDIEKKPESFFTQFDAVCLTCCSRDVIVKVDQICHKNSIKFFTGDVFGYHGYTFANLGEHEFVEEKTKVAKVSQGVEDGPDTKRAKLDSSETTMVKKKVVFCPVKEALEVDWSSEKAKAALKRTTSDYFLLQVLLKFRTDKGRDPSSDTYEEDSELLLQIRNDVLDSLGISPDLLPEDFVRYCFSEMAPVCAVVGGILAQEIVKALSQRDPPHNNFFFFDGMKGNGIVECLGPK
As to the kind of experiment: SUMO IF: in vitro inhibitory activity assay against SAE in HCT116 cells (SUMO-2/3 immunofluorescence). In kind it is cell-based. As to conditions: 6 h at 37° C. In outline:
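HCT116 cells were treated with compound for 6 h at 37 °C, then PFA-fixed, Triton-permeabilised and BSA-blocked. They were stained overnight at 4 °C with anti-SUMO-2/3 (18H8) rabbit mAb (1:400), then with FITC anti-rabbit IgG (1:300). Fluorescence versus DMSO gave inhibition rate and IC50.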

Data set [1] in a line: In vivo pharmacokinetic experiment in CD-1 female mice, intravenous. As to conditions: CD-1 mice; for Plasma AUClast: plasma (Table 4); for C0 / clearance / half-life / AUC(0-t) / Cmax / Vd / blood plasma ratio: mouse; for Vd: read-out: Vdss; for blood plasma ratio: in vivo, iv. On the procedure:
Biological Example 3. In Vivo Pharmacokinetic Experiment of Compound of the Present Disclosure
[…] The mice were fasted for at least 12 h before the administration and given food after the administration, and they were given ad libitum access to water during the experiment. On the day of the experiment, animals in the intravenous group were administered the corresponding compound by single injection via the tail vein at an administration volume of 0.2 mL/animal. The sample collection time was 0.083 h, 0.167 h, 0.5 h, 1 h, 2 h, 4 h, 8 h, and 24 h. About 150 μL of whole blood was collected through the submaxillary venous plexus at each time point (30 μL of whole blood was diluted with ultrapure water at a ratio of 1:3, and 120 μL of whole blood was centrifuged to obtain plasma) and used for concentration determination by high-performance liquid chromatography-tandem mass spectrometry (LC-MS/MS). All animals were sacrificed after the PK samples were collected at the last time point. The plasma concentration was processed using a non-compartmental model of Phoenix WinNonlin™ version 8.3 (Certara) pharmacokinetic software, and the pharmacokinetic parameters were calculated using a linear-log trapezoidal method.

The mark [2] stands for this setting: 2 mg/kg, 2 mpk, plasma, read-out: AUClast.
Where [3] appears, read: 2 mg/kg, 2 mpk, plasma, read-out: Cmax.
Where [4] appears, read: 2 mg/kg, 2 mpk, whole blood, read-out: Whole blood AUClast.
The mark [5] stands for this setting: 2 mg/kg, 2 mpk, whole blood, read-out: Whole blood Cmax.
Setting [6] is: 2 mg/kg, 2 mpk, read-out: Whole blood AUClast/plasma AUClast ratio.
Where [7] appears, read: 2 mg/kg, 2 mpk, read-out: Whole blood Cmax/plasma Cmax ratio.

In general, pIC50 refers to −log10 of the IC50, conventionally taken in molar units. Read a high pIC50 as a low IC50. What is called clearance is the volume of plasma or blood freed of the substance per unit of time. Read a low clearance as inefficient removal. As a reminder, the half-life is the time in which the quantity being followed falls by half. A low value points to fast loss. Broadly, the Cmax is the maximum level reached in the sampled fluid or tissue.

`NS(=O)(=O)OC[C@H]1[C@H](F)[C@@H](Nc2ncncc2C(=O)c2cc3c(s2)CC[C@]32NCCc3ccc(Cl)cc32)C[C@@H]1O` [Compound 132] had a negative-log IC50 (pIC50) on SAE (numeric values) of 7.39. Further, in data set [1] (2 mpk), the “Plasma AUClast” value stood at 602 ng·h/mL. Besides, in data set [1] (2 mg/kg, 2 mpk, plasma), the C0 is 803 ng/mL, the clearance was 27.5 mL/min/kg, the half-life is 3.48 h and the Vd turned out to be 5.45 L/kg. Moreover, in data set [1] (setting [2]), the AUC(0-t) worked out at 602 ng·h/mL. Moreover, the Cmax in data set [1] (setting [3]) was found to be 438 ng/mL. Further, in data set [1] (setting [4]), the AUC(0-t) was found to be 38200 ng·h/mL. The highest concentration (Cmax) in data set [1] (setting [5]) turned out to be 9270 ng/mL. Further, the blood plasma ratio in data set [1] (setting [6]) came out at 63.4. The blood plasma ratio in data set [1] (setting [7]) was found to be 21.1.
In turn, `NS(=O)(=O)OC[C@H]1[C@H](F)[C@@H](Nc2ncncc2C(=O)c2cc3c(s2)CCC[C@]32NCCc3ccc(Cl)cc32)C[C@@H]1O` [Compound 90] showed a pIC50 on SAE (numeric values) of 7.68. Besides, the “Plasma AUClast” value in data set [1] (2 mpk) amounted to 615 ng·h/mL. In addition, in data set [1] (2 mg/kg, 2 mpk, plasma), the C0 is 431 ng/mL, the clearance turned out to be 53.1 mL/min/kg, the half-life is 4.73 h and the Vd was determined as 12.7 L/kg. In data set [1] (setting [2]), the AUC(0-t) is 615 ng·h/mL. Moreover, the peak concentration (Cmax) in data set [1] (setting [3]) was determined as 331 ng/mL. The AUC(0-t) in data set [1] (setting [4]) came out at 46600 ng·h/mL. For the same molecule, the maximum concentration (Cmax) in data set [1] (setting [5]) worked out at 13400 ng/mL. Besides, the blood plasma ratio in data set [1] (setting [6]) stood at 75.7. Also, in data set [1] (setting [7]), the blood plasma ratio turned out to be 40.5.
For `NS(=O)(=O)OC[C@H]1[C@H](F)[C@@H](Nc2ncncc2C(=O)c2cc3c(s2)C=C[C@]32NCCc3ccc(Cl)cc32)C[C@@H]1O` [Compound 344], on SAE (numeric values), the negative logarithm of the IC50 (pIC50) was 7.68. The “Plasma AUClast” value in data set [1] (2 mpk) came out at 345 ng·h/mL. Besides, in data set [1] (2 mg/kg, 2 mpk, plasma), the C0 was 249 ng/mL, the clearance is 94.9 mL/min/kg, the half-life was 1.48 h and the Vd is 8.65 L/kg. For the same molecule, the AUC(0-t) in data set [1] (setting [2]) was 345 ng·h/mL. Further, the maximum concentration (Cmax) in data set [1] (setting [3]) worked out at 299 ng/mL. Further, the AUC(0-t) in data set [1] (setting [4]) is 17000 ng·h/mL. Also, in data set [1] (setting [5]), the Cmax was found to be 7780 ng/mL. In addition, the blood plasma ratio in data set [1] (setting [6]) was 49.2. Also, the blood plasma ratio in data set [1] (setting [7]) came out at 26.
In the case of `NS(=O)(=O)OC[C@H]1[C@H](F)[C@@H](Nc2ncncc2C(=O)c2cc3c(s2)CCC[C@]32NCCc3ccc(F)cc32)C[C@@H]1O` [Compound 93], on SAE (numeric values), the pIC50 was 7.49. Also, in data set [1] (2 mpk), the “Plasma AUClast” value was found to be 448 ng·h/mL. Besides, in data set [1] (2 mg/kg, 2 mpk, plasma), the C0 turned out to be 406 ng/mL, the clearance was determined as 71.1 mL/min/kg, the half-life was 1.88 h and the Vd was found to be 9.18 L/kg. In addition, in data set [1] (setting [2]), the AUC(0-t) stood at 448 ng·h/mL. The Cmax in data set [1] (setting [3]) is 281 ng/mL. For the same molecule, the AUC(0-t) in data set [1] (setting [4]) was 25100 ng·h/mL. Moreover, the Cmax in data set [1] (setting [5]) was found to be 13300 ng/mL. In data set [1] (setting [6]), the blood plasma ratio worked out at 56. Further, the blood plasma ratio in data set [1] (setting [7]) was 47.4.
Turning to `Cc1sc(C(=O)c2cncnc2N[C@H]2C[C@H](O)[C@@H](COS(N)(=O)=O)[C@@H]2F)cc1[C@@H]1NCCc2ccc(Cl)cc21` [Compound 233], the negative logarithm of the IC50 (pIC50) against SAE (numeric values) was 7.37. In addition, the “Plasma AUClast” value in data set [1] (1 mpk) was 132 ng·h/mL. In data set [1] (1 mg/kg, 1 mpk, plasma), the C0 worked out at 77 ng/mL, the clearance was determined as 103 mL/min/kg, the half-life is 3.63 h and the Vd came to 27.6 L/kg. Moreover, in data set [1] (1 mg/kg, 1 mpk, plasma, read-out: AUClast), the AUC(0-t) is 132 ng·h/mL. In addition, the maximum concentration (Cmax) in data set [1] (1 mg/kg, 1 mpk, plasma, read-out: Cmax) was determined as 58 ng/mL. For the same molecule, the AUC(0-t) in data set [1] (1 mg/kg, 1 mpk, whole blood, read-out: Whole blood AUClast) turned out to be 30100 ng·h/mL. Moreover, in data set [1] (1 mg/kg, 1 mpk, whole blood, read-out: Whole blood Cmax), the Cmax is 4430 ng/mL. In addition, the blood plasma ratio in data set [1] (1 mg/kg, 1 mpk, read-out: Whole blood AUClast/plasma AUClast ratio) came out at 228. Moreover, the blood plasma ratio in data set [1] (1 mg/kg, 1 mpk, read-out: Whole blood Cmax/plasma Cmax ratio) came out at 76.3.
Molecule `CN1Cc2sc(C(=O)c3cncnc3N[C@H]3C[C@H](O)[C@@H](COS(N)(=O)=O)[C@@H]3F)cc2[C@@]2(C1)OCCc1ccc(F)cc12` [Compound 721] gave a negative logarithm of the IC50 (pIC50) at SAE (class symbols) of less than 6.70.
Same read-out and setting: then `NS(=O)(=O)OC[C@H]1[C@H](F)[C@@H](Nc2ncncc2C(=O)c2cc3c(s2)C=C[C@]32OCCc3ccc(F)cc32)C[C@@H]1O` [Compound 758], with no less than 7.30; and `COc1ccc2c(c1)C1(CCCc3sc(C(=O)c4cncnc4N[C@H]4C[C@H](O)[C@@H](COS(N)(=O)=O)[C@@H]4F)cc31)NCC2` (stereo partly drawn) [Compound 108], with less than 6.70.
In the case of `NS(=O)(=O)OC[C@H]1[C@H](F)[C@@H](Nc2ncncc2C(=O)c2cc3c(s2)CSCC32NCCc3ccccc32)C[C@@H]1O` (stereo partly drawn) [Compound 294], the pIC50 against SAE (class symbols) was less than 6.70.
For `CC(C)N1Cc2sc(C(=O)c3cncnc3N[C@H]3C[C@H](O)[C@@H](COS(N)(=O)=O)[C@@H]3F)cc2[C@@]2(C1)NCCc1ccc(Cl)cc12` [Compound 649], on SAE (numeric values), the pIC50 is less than 6.00.
In turn, `NS(=O)(=O)OC[C@H]1[C@H](F)[C@@H](Nc2ncncc2C(=O)c2cc3c(s2)COC[C@@]32NCCc3cc(Cl)c(Cl)cc32)C[C@@H]1O` [Compound 562] showed a pIC50 at SAE (class symbols) of less than 6.70.
In turn, `NS(=O)(=O)OC[C@H]1[C@H](F)[C@@H](Nc2ncncc2C(=O)c2cc3c(s2)CC[C@@]32NCCc3ccccc32)C[C@@H]1O` [Compound 128] showed a pIC50 against SAE (numeric values) of less than 6.00.
The molecule `NS(=O)(=O)OC[C@H]1[C@H](F)[C@@H](Nc2ncncc2C(=O)c2cc3c(s2)CN(C2CC2)C[C@]32OCCc3ccc(F)cc32)C[C@@H]1O` [Compound 740] showed a pIC50 at SAE (class symbols) of no less than 7.30.
With `NS(=O)(=O)OC[C@H]1[C@H](F)[C@@H](Nc2ncncc2C(=O)c2cc3c(s2)CCC[C@]32NCCc3ccc(C4CC4)cc32)C[C@@H]1O` [Compound 667], the pIC50 against SAE (class symbols) is 6.70 to 7.30.
